We go through 5 compounds from patent publication US10889595B2, “[1,3]thiazin-2-amine compound, application, and pharmaceutical composition” (TETRANOV PHARMACEUTICAL CO., LTD., priority 2016, dated 2021).

The structures appear in SMILES notation.

Chain of BACE1 (P56817 46-501): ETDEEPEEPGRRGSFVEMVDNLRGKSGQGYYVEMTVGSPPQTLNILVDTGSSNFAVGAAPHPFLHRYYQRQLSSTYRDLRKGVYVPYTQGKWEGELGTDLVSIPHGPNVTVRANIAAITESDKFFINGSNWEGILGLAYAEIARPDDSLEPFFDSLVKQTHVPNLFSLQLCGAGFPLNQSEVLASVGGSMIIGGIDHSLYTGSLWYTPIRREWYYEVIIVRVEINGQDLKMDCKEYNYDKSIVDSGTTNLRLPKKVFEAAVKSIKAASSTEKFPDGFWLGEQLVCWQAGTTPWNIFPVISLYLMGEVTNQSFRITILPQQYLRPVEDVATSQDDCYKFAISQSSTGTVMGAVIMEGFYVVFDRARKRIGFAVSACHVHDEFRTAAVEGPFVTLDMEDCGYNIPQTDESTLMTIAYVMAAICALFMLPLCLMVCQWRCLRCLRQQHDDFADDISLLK

The assay has as its target BACE1 (Homo sapiens (Human), UniProt P56817). Nature of the assay: Activity assay: inhibitory activity against the enzyme BACE1. It counts as biochemical. Conditions: 10 doses, 3-fold serial dilution starting from 10 μmol/L, singlet. The protocol:
The activity assay for the compound of each example was carried out in this experimental example, and the detailed test method was as follows:
1. The test compound was formulated as […] solution in dimethylsulfoxide;
2. Starting from 10 μmol/L, by 3-fold serial dilution, the inhibitory activity of each compound against the enzyme was tested in singlet state at 10 doses;
3. IC50 values of test compounds were finally obtained.
For `Cc1cnc(C(=O)Nc2cccc([C@]34CO[C@@H](C)C[C@@]3(F)CSC(N)=N4)c2)cn1` [Example 15, N-(3-((4aS,6S,8aS)-2-amino-4a-fluoro-6-methyl-4,4a,5,6,8,8a-hexahydropyrano[3,4-d][1,3]thiazin-8a-yl)phenyl)-5-methylpyrazin-2-carboxamide], inhibition was half-maximal at 225 nM (IC50).

For the compound `C[C@H]1C[C@@]2(F)CSC(N)=N[C@@]2(c2cc(N)ccc2F)CO1` [Example 7, (4aS,6S,8aS)-8a-(5-amino-2-fluorophenyl)-4a-fluoro-6-methyl-4,4a,5,6,8,8a-hexahydropyrano[3,4-d][1,3]thiazin-2-amine], half-maximal inhibition (IC50) was put at 5870 nM.

For the compound `C[C@H]1C[C@@]2(F)CSC(N)=N[C@@]2(c2cc(NC(=O)c3ccc(Cl)cn3)ccc2F)CO1` [Example 11, N-(3-((4aS,6S,8aS)-2-amino-4a-fluoro-6-methyl-4,4a,5,6,8,8a-hexahydropyrano[3,4-d][1,3]thiazin-8a-yl)-4-fluorophenyl)-5-chloropicolinamide], the IC50 (usually the midpoint of a concentration-inhibition curve) was 172 nM.

Compound `COc1cnc(C(=O)Nc2cccc([C@]34CO[C@@H](C)C[C@@]3(F)CSC(N)=N4)c2)cn1` [Example 14, N-(3-((4aS,6S,8aS)-2-amino-4a-fluoro-6-methyl-4,4a,5,6,8,8a-hexahydropyrano[3,4-d][1,3]thiazin-8a-yl)phenyl)-5-methoxypyrazin-2-carboxamide] had an IC50 of 130 nM.

Regarding `COc1cnc(C(=O)Nc2ccc(F)c([C@]34CO[C@@H](C)C[C@@]3(F)CSC(N)=N4)c2)cn1` [Example 12], the IC50 was 150 nM. The IC50 values of the last two compounds are within 1.5-fold of each other.
